Data from article PMC5327470, “Discovery and Optimization of Novel 5-Indolyl-7-arylimidazo[1,2-a]pyridine-8-carbonitrile Derivatives as Potent Antitubulin Agents Targeting Colchicine-binding Site” (Scientific Reports, 2017).

Legend:
[1] = tested on: SMMC-7721 (human liver cancer); test: MTT antiproliferative assay, SMMC-7721; type: cell-based; settings: 72 h, mean ± SD
Method: Data represent the mean values ± standard deviation (SD) of independent experiments performed in triplicate.
All of the cells were purchased from the American Type Culture Collection (ATCC, Manassas, VA).
The antiproliferative activities in vitro of Crolibulin and all the target compounds were determined by an MTT assay. Briefly, cells were seeded into 96-well plates at a density of 1–3 × 10^4/well (depends on the cell growth rate). 24 h later, triplicate wells were treated with media and the agents. […] After 4 h of incubation, the medium with MTT was removed, and […] of DMSO was added to each well. The plates were gently agitated until the purple formazan crystals were dissolved, and the OD490 was determinedusing a microplate reader (MK3, Thermo, Germany). The data were calculated and plotted as the percent viability compared to the control.

[2] = tested on: MKN-45 (human gastric cancer); test: MTT antiproliferative assay, MKN-45; type: cell-based; settings: 72 h, mean ± SD, read-out: IC50 (μM) ±SD MKN45
Method: (§1) To evaluate the antiproliferative activity, all synthesized derivatives (5a–5v and 7a–7h) were investigated for their activity in vitro against a panel of cancer cell lines including HT-29 (human colon cancer), H460 (human lung cancer), A549 (human lung carcinoma), MKN-45 (human gastric cancer) and SMMC-7721 (human liver cancer) by MTT assay. CA-4 and Crolibulin were served as positive control, and the results expressed as half-maximal inhibitory concentration (IC50). IC50 values are the concentrations that cause 50% inhibition of cancer cell growth (μM). Data represent the mean values ± standard deviation (SD) of independent experiments performed in triplicate.
(§2) Cell lines and culture conditions.The human colon carcinoma cell line HT-29, the human pulmonary carcinoma cell line A549, the human gastric carcinoma cell line MKN-45, the human breast cancer cell line MDA-MB-231 and human heptocarcinoma cellline SMMC-7721were cultured in RPMI-1640 mediumcontaining 10% FBS, 100 U/mL streptomycin and 100 U/mL penicillinat 37 °C in humidified atmosphere with 5% CO2. All of the cells were purchased from the American Type Culture Collection (ATCC, Manassas, VA).
(§3) The antiproliferative activities in vitro of Crolibulin and all the target compounds were determined by an MTT assay. Briefly, cells were seeded into 96-well plates at a density of 1–3 × 10^4/well (depends on the cell growth rate). 24 h later, triplicate wells were treated with media and the agents. After 72 h ofincubation at 37 °C in 5% CO2, the drug containing medium wasremoved and replaced by […] of fresh medium with 5 mg/mLMTT solution. After 4 h of incubation, the medium with MTT was removed, and […] of DMSO was added to each well. The plates were gently agitated until the purple formazan crystals were dissolved, and the OD490 was determinedusing a microplate reader (MK3, Thermo, Germany). The data were calculated and plotted as the percent viability compared to the control. The 50% inhibitory concentration (IC50) was defined as theconcentration that reduced the absorbance of the untreated wells by 50% of the vehicle in the MTT assay.

[3] = tested on: HT-29 (human colon cancer); test: MTT antiproliferative assay, HT-29; type: cell-based; settings: Homo sapiens, HT-29; MTT, 72 h, mean ± SD; read-out: IC50 (μM) ±SD HT29
Method: as §1, §2, §3

H460 (human lung cancer) = test: MTT antiproliferative assay, H460; type: cell-based; settings: for IC50: Homo sapiens, MTT, 72 h, mean ± SD
Method: as §1, §3

[4] = tested on: A549 (human lung carcinoma); test: MTT antiproliferative assay, A549; type: cell-based; settings: 72 h, mean ± SD
Method: as §1, §2, §3

| Structure (SMILES) | IC50 [1] [µM] | IC50 [2] [µM] | IC50 [3] [µM] | melting point [°C] | IC50 (H460 (human lung cancer); NCI-H460, 72 h) [µM] | IC50 [4] [µM] | fold more active in H460 than 5h (H460 (human lung cancer); ratio of IC50 values) | IC50 (H460 (human lung cancer); NCI-H460) [µM] |
| --- | --- | --- | --- | --- | --- | --- | --- | --- |
| CN(C)Cc1cn2c(-c3c[nH]c4ccccc34)cc(-c3ccc(F)cc3Cl)c(C#N)c2n1 [7d, 7-(2-chloro-4-fluorophenyl)-2-((dimethylamino)methyl)-5-(1H-indol-3-yl)imidazo[1,2-a]pyridine-8-carbonitrile] | 22.1 ± 3.41 | 16.6 ± 1.13 | 0.19 ± 0.02 | 175.4 to 178.4 | 0.71 ± 0.05 | 7.53 ± 0.63 | – | – |
| CNCc1cn2c(-c3c[nH]c4ccccc34)cc(-c3ccc(F)cc3Cl)c(C#N)c2n1 [7a, 7-(2-chloro-4-fluorophenyl)-5-(1H-indol-3-yl)-2-((methylamino)methyl)imidazo[1,2-a]pyridine-8-carbonitrile] | 27 ± 3.06 | 12.2 ± 1.89 | 0.04 ± 0.001 | 219.5 to 223.5 | 1.29 ± 0.21 | 5.34 ± 0.67 | – | – |
| N#Cc1c(-c2ccc(O)c(O)c2O)cc(-c2c[nH]c3ccccc23)n2ccnc12 [5p, 5-(1H-indol-3-yl)-7-(2,3,4-trihydroxyphenyl)imidazo[1,2-a]pyridine-8-carbonitrile] | 10.4 ± 1.64 | 9.67 ± 0.73 | 1.48 ± 0.27 | 297.8 to 301.4 | 0.25 ± 0.031 | 1.18 ± 0.21 | – | – |
| N#Cc1c(-c2ccccc2)cc(-c2c[nH]c3ccc(Br)cc23)n2ccnc12 [5r, 5-(5-bromo-1H-indol-3-yl)-7-phenylimidazo[1,2-a]pyridine-8-carbonitrile] | > 100 | 7.38 ± 0.63 | 1.74 ± 0.14 | 337.9 to 342.4 | 11.4 ± 1.68 | 67.3 ± 7.43 | – | – |
| N#Cc1c(-c2ccc(F)cc2F)cc(-c2c[nH]c3ccccc23)n2ccnc12 [5i, 7-(2,4-difluorophenyl)-5-(1H-indol-3-yl)imidazo[1,2-a]pyridine-8-carbonitrile] | 13.6 ± 2.38 | 0.03 ± 0.006 | 0.08 ± 0.001 | 340.3 to 346.2 | 0.04 ± 0.001 | 0.12 ± 0.03 | about 29 fold | – |
| N#Cc1c(-c2ccc(F)c(F)c2)cc(-c2c[nH]c3ccccc23)n2ccnc12 [5j, 7-(3,4-difluorophenyl)-5-(1H-indol-3-yl)imidazo[1,2-a]pyridine-8-carbonitrile] | 18.5 ± 2.76 | 1.43 ± 0.12 | 0.03 ± 0.009 | 341.6 to 343.8 | 0.076 ± 0.01 | – | – | – |
| N#Cc1c(-c2ccc(F)cc2Cl)cc(-c2c[nH]c3ccccc23)n2cc(CN3CCOCC3)nc12 [7h, 7-(2-chloro-4-fluorophenyl)-5-(1H-indol-3-yl)-2-(morpholinomethyl)imidazo[1,2-a]pyridine-8-carbonitrile] | 28.7 ± 1.79 | 36.3 ± 5.15 | 0.92 ± 0.14 | 201.3 to 203.5 | 1.27 ± 0.14 | 16.9 ± 1.98 | – | – |
| COc1ccc(-c2cc(-c3c[nH]c4ccccc34)n3ccnc3c2C#N)cc1 [5d, 5-(1H-indol-3-yl)-7-(4-methoxyphenyl)imidazo[1,2-a]pyridine-8-carbonitrile] | 71.5 ± 9.43 | 1.64 ± 0.07 | 0.43 ± 0.03 | 294.7 to 295.5 | 9.61 ± 0.76 | 15.5 ± 2.13 | – | – |
| COc1cc(OC)c(OC)c(-c2cc(-c3c[nH]c4ccccc34)n3ccnc3c2C#N)c1 [5q, 5-(1H-indol-3-yl)-7-(2,3,5-trimethoxyphenyl)imidazo[1,2-a]pyridine-8-carbonitrile] | 27.4 ± 2.32 | 1.74 ± 0.15 | 0.46 ± 0.03 | 302.7 to 304.8 | – | 1.75 ± 0.13 | – | – |
| N#Cc1c(-c2cc(Br)c(O)c(Br)c2)cc(-c2c[nH]c3ccccc23)n2ccnc12 [5m, 7-(3,5-dibromo-4-hydroxyphenyl)-5-(1H-indol-3-yl)imidazo[1,2-a]pyridine-8-carbonitrile] | 20.5 ± 3.53 | 18.3 ± 2.13 | 2.13 ± 0.12 | 290.5 to 294.2 | 1.15 ± 0.13 | 2.45 ± 0.37 | – | – |
| N#Cc1c(-c2ccc(F)cc2Cl)cc(-c2c[nH]c3ccc(Br)cc23)n2ccnc12 [5v, 5-(5-bromo-1H-indol-3-yl)-7-(2-chloro-4-fluorophenyl)imidazo[1,2-a]pyridine-8-carbonitrile] | 56.3 ± 4.87 | 7.35 ± 0.54 | 0.26 ± 0.03 | 320.8 to 323.2 | 2.13 ± 0.24 | 3.57 ± 0.23 | – | – |
| COc1cccc(-c2cc(-c3c[nH]c4ccccc34)n3ccnc3c2C#N)c1 [5c, 5-(1H-indol-3-yl)-7-(3-methoxyphenyl)imidazo[1,2-a]pyridine-8-carbonitrile] | 76.2 ± 8.98 | 1.24 ± 0.08 | 0.24 ± 0.01 | 316.5 to 318.7 | 17.5 ± 1.53 | 12.2 ± 1.89 | – | – |
| COc1cc(-c2cc(-c3c[nH]c4ccccc34)n3ccnc3c2C#N)c(Br)cc1O [5n, 7-(2-bromo-4-hydroxy-5-methoxyphenyl)-5-(1H-indol-3-yl)imidazo[1,2-a]pyridine-8-carbonitrile] | 97.2 ± 6.54 | 14.5 ± 2.43 | 1.16 ± 0.13 | 327.7 to 330 | 9.61 ± 0.74 | 80.2 ± 9.68 | – | – |
| N#Cc1c(-c2ccc(F)cc2Cl)cc(-c2c[nH]c3ccccc23)n2cc(CN3CCCC3)nc12 [7g, 7-(2-chloro-4-fluorophenyl)-5-(1H-indol-3-yl)-2-(pyrrolidin-1-ylmethyl)imidazo[1,2-a]pyridine-8-carbonitrile] | 42.6 ± 4.12 | 19.2 ± 1.35 | 0.19 ± 0.02 | 195 to 199.7 | 1.32 ± 0.12 | 8.79 ± 0.62 | – | – |
| COc1cc([C@H]2C(C#N)=C(N)Oc3c2ccc(N)c3N)cc(Br)c1OC [Crolibulin, reference compound] | – | 0.17 ± 0.03 | 0.52 ± 0.02 | – | – | – | – | 0.03 ± 0.007 |
| CC1CCN(Cc2cn3c(-c4c[nH]c5ccccc45)cc(-c4ccc(F)cc4Cl)c(C#N)c3n2)CC1 [7f, 7-(2-chloro-4-fluorophenyl)-5-(1H-indol-3-yl)-2-((4-methylpiperidin-1-yl)methyl)imidazo[1,2-a]pyridine-8-carbonitrile] | 11.3 ± 2.15 | 1.63 ± 0.28 | 0.56 ± 0.07 | 185.7 to 187.9 | 0.85 ± 0.06 | 20.3 ± 2.32 | – | – |
| N#Cc1c(-c2ccccc2)cc(-c2c[nH]c3ccccc23)n2ccnc12 [5a, 5-(1H-indol-3-yl)-7-phenylimidazo[1,2-a]pyridine-8-carbonitrile] | 89.4 ± 2.6 | 79.7 ± 8.1 | 0.3 ± 0.04 | 338.3 to 339.7 | 2.79 ± 0.52 | 86.4 ± 7.33 | – | – |
